Laboratory results taken from patent US6673839B1, “Pharmaceutical compositions with antitumour activity” (Universita' Degli Studi di Catania, priority 1998, dated 2004).
Counter-ions that a name gives are not always drawn.

System: Yoshida tumour
Test: Chemopreventive effects on Yoshida tumour inoculation and thriving
Format: in vivo, Sprague-Dowley rats
Conditions: for animals showing ascites: day 8 after inoculation
Experimental: In order to elucidate the actual chemoprevention antitumour Potentialities of L-aC, 125 Sprague-Dowley rats (4 months old, mean weight: 200 g), under standard feeding and temperature conditions (25° C.), were divided in 5 groups and treated as follows:
Group 1: 25 rats were intraperitoneally treated, on alternate days for 10 days, with 25 mg of L-aC diluted in 5 ml of saline solution. On day 10 they were inoculated with Yoshida tumour.
Group 2: 25 rats were intraperitoneally treated, on alternate days for 10 days, with 25 mg of L-aC diluted in 5 ml of saline solution. On day 10 they were inoculated with Yoshida tumour. Starting from day 11, they were further treated intraperitoneally, on alternate days, with 25 mg of L-aC diluted in 5 ml of saline solution, for a further 10 days.
Group 3: 25 previously untreated rats were inoculated, on day 10, with Yoshida tumour. Starting from day 14 they were intraperitoneally treated, on alternate days, with 25 mg of L-aC diluted in 5 ml of saline solution for 10 days.
Group 4: 25 previously untreated rats were inoculated on day 10 with Yoshida tumour. On day 18 to 24 they were intraperitoneally treated, on alternate days, with 25 mg of L-aC diluted in 5 ml of saline solution for 10 days.
Group 5: 25 previously untreated rats were inoculated on day 10 with Yoshida tumour. On day 18 to 24 they were subjected to emptying, on alternate days, of 5 ml of ascitic fluid which was substituted with 50 mg of L-aC diluted in 5 ml of saline solution.
The onset and evolution of the tumour were checked by daily observation and weighing.

## CC(=O)OC(CC(=O)[O-])C[N+](C)(C)C [L-aC, L-acetylcarnitine hydrochloride]
6 animals sacrified at end of observation
  necroscopy finding: no presence of the disease
Group 1 (25 mg L-aC i.p. alternate days 10 days before inoculation)
  animals showing ascites: 4/25
Group 1, 25 mg L-aC i.p. alternate days for 10 days, inoculated day 10, day 01 of observation
  surviving animals: 25
Group 1, 25 mg L-aC i.p. alternate days for 10 days, inoculated day 10, day 03
  surviving animals: 25
Group 1, 25 mg L-aC i.p. alternate days for 10 days, inoculated day 10, day 05
  surviving animals: 25
Group 1, 25 mg L-aC i.p. alternate days for 10 days, inoculated day 10, day 07
  surviving animals: 25
Group 1, 25 mg L-aC i.p. alternate days for 10 days, inoculated day 10, day 09
  surviving animals: 25
Group 1, 25 mg L-aC i.p. alternate days for 10 days, inoculated day 10, day 10
  surviving animals: 25
Group 1, 25 mg L-aC i.p. alternate days for 10 days, inoculated day 10, day 11
  surviving animals: 25
Group 1, 25 mg L-aC i.p. alternate days for 10 days, inoculated day 10, day 14
  surviving animals: 25
Group 1, 25 mg L-aC i.p. alternate days for 10 days, inoculated day 10, day 18
  surviving animals: 25
Group 1, 25 mg L-aC i.p. alternate days for 10 days, inoculated day 10, day 21
  surviving animals: 20
Group 1, 25 mg L-aC i.p. alternate days for 10 days, inoculated day 10, day 24
  surviving animals: 15
Group 1, 25 mg L-aC i.p. alternate days for 10 days, inoculated day 10, day 27
  surviving animals: 13
Group 1, 25 mg L-aC i.p. alternate days for 10 days, inoculated day 10, day 30
  surviving animals: 13
Group 1, 25 mg L-aC i.p. alternate days for 10 days, inoculated day 10, day 45
  surviving animals: 13
Group 1, of 21 ascites-free animals, day 27 of observation
  animals free from the disease and still alive: 13
Group 1, of 21 ascites-free animals, within day 27 of observation
  animals with late ascites that died: 8
Group 1, the 4 animals with ascites
  day of observation by which ascitic animals died: ≤ 26 days
Group 2 (25 mg L-aC i.p. alternate days 10 days before and 10 days after inoculation)
  animals showing ascites: 5/25
Group 2, 25 mg L-aC i.p. alternate days 10 days before and 10 days after inoculation (day 10), day 01 of observation
  surviving animals: 25
Group 2, 25 mg L-aC i.p. alternate days 10 days before and 10 days after inoculation (day 10), day 03
  surviving animals: 25
Group 2, 25 mg L-aC i.p. alternate days 10 days before and 10 days after inoculation (day 10), day 05
  surviving animals: 25
Group 2, 25 mg L-aC i.p. alternate days 10 days before and 10 days after inoculation (day 10), day 07
  surviving animals: 25
Group 2, 25 mg L-aC i.p. alternate days 10 days before and 10 days after inoculation (day 10), day 09
  surviving animals: 25
Group 2, 25 mg L-aC i.p. alternate days 10 days before and 10 days after inoculation (day 10), day 10
  surviving animals: 25
Group 2, 25 mg L-aC i.p. alternate days 10 days before and 10 days after inoculation (day 10), day 11
  surviving animals: 25
Group 2, 25 mg L-aC i.p. alternate days 10 days before and 10 days after inoculation (day 10), day 14
  surviving animals: 25
Group 2, 25 mg L-aC i.p. alternate days 10 days before and 10 days after inoculation (day 10), day 18
  surviving animals: 25
Group 2, 25 mg L-aC i.p. alternate days 10 days before and 10 days after inoculation (day 10), day 21
  surviving animals: 21
Group 2, 25 mg L-aC i.p. alternate days 10 days before and 10 days after inoculation (day 10), day 24
  surviving animals: 21
Group 2, 25 mg L-aC i.p. alternate days 10 days before and 10 days after inoculation (day 10), day 27
  surviving animals: 21
Group 2, 25 mg L-aC i.p. alternate days 10 days before and 10 days after inoculation (day 10), day 30
  surviving animals: 21
Group 2, 25 mg L-aC i.p. alternate days 10 days before and 10 days after inoculation (day 10), day 45
  surviving animals: 21
Group 2, of 20 ascites-free animals, day 27 of observation
  animals free from the disease and still alive: 18
Group 2, of 20 ascites-free animals, within day 27
  animals with late ascites that died: 2
Group 2, day 27 of observation
  animals still alive with markedly low or even no ascites: 3
Group 3 (25 mg L-aC i.p. alternate days from day 14, inoculated day 10), day 27 of observation
  animals still alive: 16/25
Group 3, inoculated day 10, 25 mg L-aC i.p. alternate days from day 14 for 10 days, day 01 of observation
  surviving animals: 25
Group 3, inoculated day 10, 25 mg L-aC i.p. alternate days from day 14 for 10 days, day 03
  surviving animals: 25
Group 3, inoculated day 10, 25 mg L-aC i.p. alternate days from day 14 for 10 days, day 05
  surviving animals: 25
Group 3, inoculated day 10, 25 mg L-aC i.p. alternate days from day 14 for 10 days, day 07
  surviving animals: 25
Group 3, inoculated day 10, 25 mg L-aC i.p. alternate days from day 14 for 10 days, day 09
  surviving animals: 25
Group 3, inoculated day 10, 25 mg L-aC i.p. alternate days from day 14 for 10 days, day 10
  surviving animals: 25
Group 3, inoculated day 10, 25 mg L-aC i.p. alternate days from day 14 for 10 days, day 11
  surviving animals: 25
Group 3, inoculated day 10, 25 mg L-aC i.p. alternate days from day 14 for 10 days, day 14
  surviving animals: 25
Group 3, inoculated day 10, 25 mg L-aC i.p. alternate days from day 14 for 10 days, day 18
  surviving animals: 25
Group 3, inoculated day 10, 25 mg L-aC i.p. alternate days from day 14 for 10 days, day 21
  surviving animals: 20
Group 3, inoculated day 10, 25 mg L-aC i.p. alternate days from day 14 for 10 days, day 24
  surviving animals: 18
